13 molecules from patent US20230203098A1, “HUMAN TRANSFERRIN RECEPTOR BINDING PEPTIDE” (priority 2020, published 2023) can be followed below.

Read-outs that look alike come from different tables or passages of the source. Where a SMILES comes first, the peptide text is derived from it. Bridges are numbered along the chain shown (N, C = ends). [ ]: non-standard residue; d: D form. The star is where a group is joined. ξ: configuration not given here. X2 = O=C(O)c1cc(C(=O)*)ccc1-c1c2ccc(=O)cc-2oc2cc(O)ccc12; PEG12 = NCCOCCOCCOCCOCCOCCOCCOCCOCCOCCOCCOCCOCCC(=O)O; NMePhe(3-Cl) = CN[C@@H](Cc1cccc(Cl)c1)C(=O)O; NMeW = CN[C@@H](Cc1c[nH]c2ccccc12)C(=O)O; Lys(N3) = [N-]=[N+]=NCCCC[C@H](N)C(=O)O; NMeY = CN[C@@H](Cc1ccc(O)cc1)C(=O)O; PEG4 = NCCOCCOCCOCCOCCC(=O)O; ξαMeK = CC(N)(CCCCN)C(=O)O Bounds are passed on as bounds.

In the assay the target is transferrin receptor (hTfR) (Homo sapiens, UniProt P02786). The assay is described as follows: Intermolecular interaction evaluation test between transferrin receptor (hTfR) and peptide by surface plasmon resonance (SPR). Format: binding. The method in brief:
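Receptor was Ni-captured and EDC/NHS-fixed on an NTA chip; running buffer HEPES pH 8.0 with NaCl, Tween 20, BSA and 1.0% DMSO.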
(In general: SPR reads the build-up and loss of mass on a sensor chip optically.)

[1] abbreviates: surface plasmon resonance, hTfR, read-out: KD value for hTfR by SPR (class symbol).
The mark [2] stands for this setting: surface plasmon resonance, peptide vs hTfR, read-out: KD value, hTfR binding by SPR (class symbol).
Setting [3] is: hTfR binding by SPR, hTfR No. 894 variant peptides, linker-added peptides and payload conjugates (Table 2), read-out: KD value obtained from the SPR measurement.
Setting [4] is: SPR, linker and payload (FITC, VivoTag) conjugates, read-out: KD.

In general, Kd refers to the equilibrium constant for the complex coming apart.

transferrin receptor (hTfR), sequence (P02786 whole entry): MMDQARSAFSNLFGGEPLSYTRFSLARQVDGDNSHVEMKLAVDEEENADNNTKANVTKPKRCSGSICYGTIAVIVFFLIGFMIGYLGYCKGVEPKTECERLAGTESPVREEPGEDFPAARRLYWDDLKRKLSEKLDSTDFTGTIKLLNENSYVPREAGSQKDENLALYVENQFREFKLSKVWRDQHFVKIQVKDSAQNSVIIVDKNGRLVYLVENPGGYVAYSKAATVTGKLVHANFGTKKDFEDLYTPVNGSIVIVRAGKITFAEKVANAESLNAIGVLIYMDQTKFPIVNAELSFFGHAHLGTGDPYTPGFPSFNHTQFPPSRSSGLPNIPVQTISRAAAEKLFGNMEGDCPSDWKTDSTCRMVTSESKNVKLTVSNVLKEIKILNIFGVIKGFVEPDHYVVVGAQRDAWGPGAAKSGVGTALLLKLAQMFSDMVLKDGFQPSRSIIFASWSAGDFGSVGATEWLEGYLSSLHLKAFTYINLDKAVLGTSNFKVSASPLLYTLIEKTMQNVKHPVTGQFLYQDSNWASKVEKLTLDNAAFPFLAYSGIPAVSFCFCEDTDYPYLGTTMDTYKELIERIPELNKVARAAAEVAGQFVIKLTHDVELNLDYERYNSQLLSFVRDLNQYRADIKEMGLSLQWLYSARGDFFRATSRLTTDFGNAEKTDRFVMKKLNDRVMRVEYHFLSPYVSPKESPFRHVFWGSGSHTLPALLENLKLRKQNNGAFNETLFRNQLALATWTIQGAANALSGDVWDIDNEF

Consider `CC[C@H](C)[C@@H]1NC(=O)[C@H](Cc2ccc(OC)cc2)NC(=O)[C@H](Cc2ccc(O)cc2)NC(=O)[C@H](CC(N)=O)NC(=O)[C@H](Cc2c[nH]c3ccccc23)N(C)C(=O)[C@H](C(C)C)NC(=O)[C@H](Cc2cccc(Cl)c2)N(C)C(=O)[C@H](C(C)C)NC(=O)[C@H](C)NC(=O)CSC[C@@H](C(=O)NCC(=O)NCC(=O)NCC(=O)NCC(=O)N[C@@H](CO)C(=O)N[C@@H](CO)C(=O)N[C@@H](CS)C(N)=O)NC(=O)[C@H](Cc2ccc(O)cc2)N(C)C(=O)[C@H](Cc2ccccc2)NC(=O)[C@@H](CCCNC(=N)N)NC(=O)[C@H](CCCNC(=N)N)NC(=O)[C@H]([C@@H](C)CC)NC1=O` [compound 401], for which the Kd fell in the range of 1 to 100 nM. Turning to `CC[C@H](C)[C@@H]1NC(=O)[C@H](Cc2ccc(O)cc2)NC(=O)[C@H](Cc2ccc(O)cc2)NC(=O)[C@H](CC(N)=O)NC(=O)[C@H](Cc2c[nH]c3ccccc23)N(C)C(=O)[C@H](C(C)C)NC(=O)[C@H](Cc2cccc(Cl)c2)N(C)C(=O)[C@@H]2CCC(=O)NCC(=O)NCCCC[C@H](NC(=O)[C@H]([C@@H](C)CC)NC1=O)C(=O)N[C@@H](CCCNC(=N)N)C(=O)N[C@@H](Cc1ccc(O)cc1)C(=O)N(C)[C@@H](Cc1ccc(O)cc1)C(=O)N[C@H](C(N)=O)CSCC(=O)N[C@@H](C)C(=O)N2` [compound 417], the Kd (surface plasmon resonance, peptide vs hTfR, read-out: KD value for hTfR by SPR (class symbol)) lay within 1 to 100 nM.

As for `CC[C@H](C)[C@@H]1NC(=O)[C@H](Cc2ccc(OC)cc2)NC(=O)[C@H](Cc2ccc(O)cc2)NC(=O)[C@H](CC(N)=O)NC(=O)[C@H](Cc2c[nH]c3ccccc23)N(C)C(=O)[C@H](C(C)C)NC(=O)[C@H](Cc2cccc(Cl)c2)N(C)C(=O)[C@H](C(C)C)NC(=O)[C@H](C)NC(=O)CSC[C@@H](C(=O)NCC(=O)N[C@@H](CCCCN=[N+]=[N-])C(N)=O)NC(=O)[C@H](Cc2ccc(O)cc2)N(C)C(=O)[C@H](Cc2ccccc2)NC(=O)[C@@H](CCCNC(=N)N)NC(=O)[C@H](CCCNC(=N)N)NC(=O)[C@H]([C@@H](C)CC)NC1=O` [compound 405] ({CH2CO}-AV[NMePhe(3-Cl)]V[NMeW]NYY(Me)IIR[dR]F[NMeY]CG[Lys(N3)]-NH2; thioether N-15), the Kd under setting [1] was 1 to 100 nM. Regarding `CC[C@H](C)[C@@H]1NC(=O)[C@H](Cc2ccc(O)cc2)NC(=O)[C@H](Cc2ccc(O)cc2)NC(=O)[C@H](CC(N)=O)NC(=O)[C@H](Cc2c[nH]c3ccccc23)NC(=O)[C@H](C(C)C)NC(=O)[C@H](Cc2ccccc2)N(C)C(=O)[C@H](C(C)C)NC(=O)[C@H](C)NC(=O)CSC[C@@H](C(N)=O)NC(=O)[C@H](Cc2ccc(O)cc2)N(C)C(=O)[C@H](Cc2ccc(O)cc2)NC(=O)[C@H](CCCNC(=N)N)NC(=O)[C@H](CCCNC(=N)N)NC(=O)[C@H]([C@@H](C)CC)NC1=O` [compound 296], the Kd under setting [2] lay within 1 to 100 nM. As for `CC[C@H](C)[C@@H]1NC(=O)[C@H](Cc2ccc(O)cc2)NC(=O)[C@H](Cc2ccc(O)cc2)NC(=O)[C@H](CC(N)=O)NC(=O)[C@H](Cc2c[nH]c3ccccc23)N(C)C(=O)[C@H](C(C)C)NC(=O)[C@H](Cc2ccccc2)N(C)C(=O)[C@H](C(C)C)NC(=O)[C@H](C)NC(=O)CSC[C@@H](C(=O)NCCOCCOCCOCCOCCC(=O)N[C@@H](CCCCNC(=O)C2CCC(CN3C(=O)C=CC3=O)CC2)C(N)=O)NC(=O)[C@H](Cc2ccc(O)cc2)N(C)C(=O)[C@H](Cc2ccc(O)cc2)NC(=O)[C@H](CCCNC(=N)N)NC(=O)[C@H](CCCNC(=N)N)NC(=O)[C@H]([C@@H](C)CC)NC1=O` (stereo partly shown) [compound 184], the Kd under setting [3] lay in the range of 1 to 100 nM. With `CC[C@H](C)[C@@H]1NC(=O)[C@H](Cc2ccc(O)cc2)NC(=O)[C@H](Cc2ccc(O)cc2)NC(=O)[C@H](CC(N)=O)NC(=O)[C@H](Cc2c[nH]c3ccccc23)NC(=O)[C@H](C(C)C)NC(=O)[C@H](Cc2c[nH]c3ccccc23)NC(=O)[C@H](C(C)C)NC(=O)[C@H]([C@@H](C)O)NC(=O)[C@H](CCCNC(=N)N)NC(=O)[C@H](CO)NC(=O)[C@H](CC(N)=O)NC(=O)[C@H](C)NC(=O)CSC[C@@H](C(=O)NCCOCCOCCOCCOCCOCCOCCOCCOCCOCCOCCOCCOCCC(=O)N[C@@H](CCCCNC(=O)c2ccc(-c3c4ccc(=O)cc-4oc4cc(O)ccc34)c(C(=O)O)c2)C(N)=O)NC(=O)[C@H](CCCNC(=N)N)NC(=O)[C@H]([C@@H](C)O)NC(=O)[C@H](C(C)C)NC1=O` [compound 157] ({CH2CO}-ANSRTVWVWNYYIVTRC[PEG12]K(X2)-NH2; thioether N-17), the Kd under setting [4] is 1 to 100 nM. `CC[C@H](C)[C@@H]1NC(=O)[C@H](Cc2ccc(O)cc2)NC(=O)[C@H](Cc2ccc(O)cc2)NC(=O)[C@H](CC(N)=O)NC(=O)[C@H](Cc2c[nH]c3ccccc23)NC(=O)[C@H](C(C)C)NC(=O)[C@H](Cc2ccccc2)N(C)C(=O)[C@H](C(C)C)NC(=O)[C@H](C)NC(=O)CSC[C@@H](C(=O)NCCOCCOCCOCCOCCC(=O)NCCOCCOCCOCCOCCC(=O)NCCOCCOCCOCCOCCC(=O)N[C@@H](CCCCNC(=O)C2CCC(CN3C(=O)C=CC3=O)CC2)C(N)=O)NC(=O)[C@H](Cc2ccc(O)cc2)N(C)C(=O)[C@H](Cc2ccc(O)cc2)NC(=O)[C@H](CCCNC(=N)N)NC(=O)[C@H](CCCNC(=N)N)NC(=O)[C@H]([C@@H](C)CC)NC1=O` (stereo partly shown) [compound 182]: under setting [3], the Kd lay within 1 to 100 nM.

For the molecule `CC[C@H](C)[C@@H]1NC(=O)[C@H](Cc2ccc(OC)cc2)NC(=O)[C@H](Cc2ccc(O)cc2)NC(=O)[C@H](CC(N)=O)NC(=O)[C@H](Cc2c[nH]c3ccccc23)N(C)C(=O)[C@H](C(C)C)NC(=O)[C@H](Cc2cccc(Cl)c2)N(C)C(=O)[C@H](C(C)C)NC(=O)[C@H](C)NC(=O)CSC[C@@H](C(=O)NCCOCCOCCOCCOCCC(N)=O)NC(=O)[C@H](Cc2ccc(O)cc2)N(C)C(=O)[C@H](Cc2ccccc2)NC(=O)[C@@H](CCCNC(=N)N)NC(=O)C(C)(CCCCN)NC(=O)[C@H]([C@@H](C)CC)NC1=O` (stereo partly shown) [compound 380] ({CH2CO}-AV[NMePhe(3-Cl)]V[NMeW]NYY(Me)II[ξαMeK][dR]F[NMeY]C[PEG4]-NH2; thioether N-15), the Kd under setting [1] lay within 1 to 100 nM. For `CC[C@H](C)[C@@H]1NC(=O)[C@H](CCCNC(=N)N)NC(=O)[C@H](CC(N)=O)NC(=O)[C@H](C)NC(=O)CSC[C@@H](C(=O)NCCOCCOCCOCCOCCOCCOCCOCCOCCOCCOCCOCCOCCC(=O)N[C@@H](CCCCNC(=O)c2ccc(-c3c4ccc(=O)cc-4oc4cc(O)ccc34)c(C(=O)O)c2)C(N)=O)NC(=O)[C@H](Cc2ccc(O)cc2)N(C)C(=O)[C@H](CCCNC(=N)N)NC(=O)[C@@H]2CCCN2C(=O)[C@H]([C@@H](C)CC)NC(=O)[C@H]([C@@H](C)CC)NC(=O)[C@H](Cc2ccc(O)cc2)NC(=O)[C@H](Cc2ccc(O)cc2)NC(=O)[C@H](CC(N)=O)NC(=O)[C@H](Cc2c[nH]c3ccccc23)NC(=O)[C@H](C(C)C)NC(=O)[C@H](Cc2ccccc2)NC(=O)[C@H](C(C)C)NC1=O` [compound 153] ({CH2CO}-ANRIVFVWNYYIIPR[NMeY]C[PEG12]K(X2)-NH2; thioether N-17), the Kd under setting [4] is 1 to 100 nM.

With `CC[C@H](C)[C@@H]1NC(=O)[C@H](Cc2ccc(OC)cc2)NC(=O)[C@H](Cc2ccc(O)cc2)NC(=O)[C@H](CC(N)=O)NC(=O)[C@H](Cc2c[nH]c3ccccc23)N(C)C(=O)[C@H](C(C)C)NC(=O)[C@H](Cc2cccc(Cl)c2)N(C)C(=O)[C@H](C(C)C)NC(=O)[C@H](C)NC(=O)CSC[C@@H](C(=O)NCC(=O)NCC(=O)NCC(=O)NCC(=O)N[C@@H](CO)C(=O)N[C@@H](CO)C(=O)N[C@@H](CS)C(N)=O)NC(=O)[C@H](Cc2ccc(O)cc2)N(C)C(=O)[C@H](Cc2ccccc2)NC(=O)[C@@H](CCCNC(=N)N)NC(=O)[C@H](CCCNC(=N)N)NC(=O)[C@H](CCCCN)NC1=O` [compound 344], the Kd under setting [2] lay within 1 to 100 nM. For the molecule `CC[C@H](C)[C@@H]1NC(=O)[C@H](Cc2ccc(OC)cc2)NC(=O)[C@H](Cc2ccc(O)cc2)NC(=O)[C@H](CC(N)=O)NC(=O)[C@H](Cc2c[nH]c3ccccc23)N(C)C(=O)[C@H](C(C)C)NC(=O)[C@H](Cc2cccc(Cl)c2)N(C)C(=O)[C@H](CCC(=O)O)NC(=O)[C@H](C)NC(=O)CSC[C@@H](C(=O)NCC(=O)N[C@@H](CCCCN=[N+]=[N-])C(N)=O)NC(=O)[C@H](Cc2ccc(O)cc2)N(C)C(=O)[C@H](Cc2ccccc2)NC(=O)[C@@H](CCCNC(=N)N)NC(=O)[C@H](CCCNC(=N)N)NC(=O)[C@H](CCC(=O)O)NC1=O` [compound 224] ({CH2CO}-AE[NMePhe(3-Cl)]V[NMeW]NYY(Me)IER[dR]F[NMeY]CG[Lys(N3)]-NH2; thioether N-15), the dissociation constant Kd (SPR, peptides, linker-added peptides and FITC conjugates, Patent ID 203-230, read-out: KD) lay within 1 to 100 nM. Regarding `CC[C@H](C)[C@@H]1NC(=O)[C@H](Cc2ccc(OC)cc2)NC(=O)[C@H](Cc2ccc(O)cc2)NC(=O)[C@H](CC(N)=O)NC(=O)[C@H](Cc2c[nH]c3ccccc23)N(C)C(=O)[C@H](C(C)C)NC(=O)[C@H](Cc2cccc(Cl)c2)N(C)C(=O)[C@H](C(C)C)NC(=O)[C@H](C)NC(=O)CSC[C@@H](C(N)=O)NC(=O)[C@H](Cc2ccc(O)cc2)N(C)C(=O)[C@H](Cc2cccnc2)NC(=O)[C@@H](CCCNC(=N)N)NC(=O)[C@H](CCCNC(=N)N)NC(=O)[C@H]([C@@H](C)CC)NC1=O` [compound 460], the equilibrium dissociation constant (Kd) (SPR, hTfR, class symbols A-D, read-out: KD) fell in the range of 1 to 100 nM. For `CC[C@H](C)[C@@H]1NC(=O)[C@H](Cc2ccc(OC)cc2)NC(=O)[C@H](Cc2ccc(O)cc2)NC(=O)[C@H](CC(N)=O)NC(=O)[C@H](Cc2c[nH]c3ccccc23)N(C)C(=O)[C@H](C(C)C)NC(=O)[C@H](Cc2cccc(Cl)c2)N(C)C(=O)[C@H](C(C)C)NC(=O)[C@H](C)NC(=O)CSC[C@@H](C(=O)NCCOCCOCCOCCOCCC(N)=O)NC(=O)[C@H](Cc2ccc(O)cc2)N(C)C(=O)[C@H](Cc2ccccc2)NC(=O)[C@@H](CCCNC(=N)N)NC(=O)C(C)(C)NC(=O)[C@H]([C@@H](C)CC)NC1=O` [compound 354], the Kd under setting [1] was under 1 nM.
